Series [1] has as its system platelet phosphodiesterase. The series can be described thus: Inhibition of platelet phosphodiesterase activity (H3-cAMP hydrolysis). In kind it is biochemical. The conditions noted are these: 5 minutes at 30° C, platelet preparations. As for the experimental part:
The IC50 's for 2'-0-(4-benzoyl)benzoyl guanosine 3',5'cyclic monophosphate and 2'-0-(4-benzoyl)benzoyl cyclic adenosine monophosphate were 3 and 10 μM, repsectively. Enzyme activity was assayed by incubation of platelet preparations with H^3 -cAMP for 5 minutes at 30° C. Activity was quenched by boiling the assay tubes for 1 minute. Each sample was run in triplicate. Analysis of H^3 -cAMP was performed according to the procedure of W. J. Thompson, W. L. Terasaki, P. M. Epstein and S. J. Strada, "Assay of Cyclic Nucleotide Phosphodiesterase and Resolution of Multiple Molecular Forms of the Enzyme", Adv. in Cyclic Nucleotide Research, 10, 69-92 (1979).

In series [2] the target is Type III cGMP phosphodiesterase. The series can be described thus: Lineweaver-Burke analysis of cGMP hydrolysis by toad photoreceptor rod outer segment membranes. In kind it is biochemical. As for the experimental part: FIG. 7 depicts a Lineweaver-Burke analysis of inhibitory effectiveness of 2'-0-(4-benzoyl)benzoyl guanosine 3',5'cyclic monophosphate versus 8-Br-cGMP. The data illustrated are cGMP hydrolysis velocities from toad photoreceptor rod outer segment membranes containing 20 nM Type III cGMP phosphodiesterase in the presence of 100 mM NaCl, 1 mM Tris-HCl, 1 MgCl2,20 μM p[NH]ppG (guanylylimididiphosphate), pH 7.4, and the indicated concentrations of substrate. Open squares indicate control velocities. […] Open circles and open triangles show the effect of 2 μM and 20uM 2'-0-(4-benzoyl)benzoyl guanosine 3',5'cyclic monophosphate respectively (Ki =0.3 μM).

The next series concerns the target cAMP PDE. In words: Inhibition of cAMP phosphodiesterase in rat bladder. In kind it is biochemical. The conditions noted are these: read-out: IC50, concentration required to cause 50% inhibition of the enzyme. As for the experimental part: (§1) 2'-0-(4-benzoyl)benzoyl guanosine 3',5' cyclic monophosphate was assayed as an inhibitor of the cGMP and cAMP phoosphodiesterases in rat bladder. The inhibition of the two PDEases were assayed as per J. N. Wells, C. E. Baird, Y. J. Wu and J. G. Hardman, Biochem. Biophys. Acta, 384, 430, (1975). Expressed as IC50 's, the concentration required to cause 50% inhibition of the enzynme were as follows: […]

The next series relates to eye. In words: Ocular tolerability in rabbits after topical administration. The class given is in vivo, rabbit.
In the next series the target is cGMP PDE. In words: Inhibition of cGMP phosphodiesterase in rat bladder. The class given is biochemical. The conditions noted are these: read-out: IC50, concentration required to cause 50% inhibition of the enzyme. As for the experimental part: as §1
The nature of a further series: Solubility in solvents. In kind it is physicochemical. The conditions noted are these: dmso, organic solvent or mixture; in water, ethanol or methanol and DSMO; read-out: upper limit of solubility. As for the experimental part: The inventive compound favors organic solvents; the upper limit of solubility in water, ethanol or methanol and DSMO is approximately 100 mM. Butanol is also a good solvent, but probably not a very good vehicle.

The nature of series [3]: Storage stability in DMSO. The class given is physicochemical. The conditions noted are these: stored at -20° C. From the text: No preservative need be added.
The subject of a further series is intraocular pressure. The series can be described thus: Intraocular pressure in normal rabbits after topical administration. In kind it is in vivo, rabbit. From the text:
Non-pigmented, normal (non-water-loaded) rabbits received topical administration to their eyes of 2'-0-(4)-benzoyl benzoyl guanosine 3',5'cyclic monophosphate as prepared according to Example 1.
The mean baseline IOP (intraocular pressure) for the rabbits was 17.5 mm Hg. It should be noted that the data presented in FIG. 1 and FIG. 2 are relative to time zero and normalized relative to the contralateral eye. The contralateral eye received a DMSO control lacking the inhibitor compound. It is believed that this is the most conservative way to represent the data.
Additionally, five rabbits were administered 2'-0-(4-benzoyl)benzoyl guanosine 3',5'cyclic monophosphate (and DMSO) in a sterile saline solution diluted 10- and 100-fold.
FIG. 1 depicts the results of increasing concentrations of 2'-0-(4-benzoyl)benzoyl guanosine 3',5' cyclic monophosphate on the intraocular pressure of normal rabbits. Pressures (±S.E.M) are relative to pressure at time zero and normalized with respect to that of the contralateral eye. Contralateral eyes received solutions containing (DMSO) vehicle without 2'-0-(4-benzoyl)benzoyl guanosine 3',5'cyclic monophosphate. […] Intraocular pressure was measured by applanation tonometry (using an Alcon Applanation Pneumotonograph) after topical application of proparacaine HCl […].

Series [4] has as its target T1, Rod Light-Activated PDEase (Bos taurus, UniProt P11541+P23439).
T1 sequence (P11541 1-859): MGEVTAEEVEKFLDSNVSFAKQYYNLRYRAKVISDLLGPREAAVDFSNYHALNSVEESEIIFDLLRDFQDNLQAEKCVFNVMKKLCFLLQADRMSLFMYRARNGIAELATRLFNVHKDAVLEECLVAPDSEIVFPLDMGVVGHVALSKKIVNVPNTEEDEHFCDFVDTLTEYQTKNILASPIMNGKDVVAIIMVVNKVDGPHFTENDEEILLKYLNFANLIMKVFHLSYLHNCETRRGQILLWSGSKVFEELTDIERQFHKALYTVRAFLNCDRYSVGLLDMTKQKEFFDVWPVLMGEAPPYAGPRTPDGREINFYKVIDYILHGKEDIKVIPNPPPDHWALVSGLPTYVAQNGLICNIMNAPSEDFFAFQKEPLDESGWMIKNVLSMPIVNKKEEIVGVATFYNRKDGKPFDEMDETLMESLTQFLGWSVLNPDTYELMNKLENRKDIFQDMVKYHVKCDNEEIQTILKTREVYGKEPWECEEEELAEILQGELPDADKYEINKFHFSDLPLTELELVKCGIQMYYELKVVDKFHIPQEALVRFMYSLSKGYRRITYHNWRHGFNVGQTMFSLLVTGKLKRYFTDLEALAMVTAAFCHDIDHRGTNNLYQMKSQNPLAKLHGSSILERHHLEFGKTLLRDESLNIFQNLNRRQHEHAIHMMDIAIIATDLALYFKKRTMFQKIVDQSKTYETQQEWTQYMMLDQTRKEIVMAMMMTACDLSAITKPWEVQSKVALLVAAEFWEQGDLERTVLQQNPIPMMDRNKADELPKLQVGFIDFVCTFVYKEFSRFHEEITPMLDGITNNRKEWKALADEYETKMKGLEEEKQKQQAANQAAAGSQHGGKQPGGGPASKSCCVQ
T1 sequence (P23439 1-853): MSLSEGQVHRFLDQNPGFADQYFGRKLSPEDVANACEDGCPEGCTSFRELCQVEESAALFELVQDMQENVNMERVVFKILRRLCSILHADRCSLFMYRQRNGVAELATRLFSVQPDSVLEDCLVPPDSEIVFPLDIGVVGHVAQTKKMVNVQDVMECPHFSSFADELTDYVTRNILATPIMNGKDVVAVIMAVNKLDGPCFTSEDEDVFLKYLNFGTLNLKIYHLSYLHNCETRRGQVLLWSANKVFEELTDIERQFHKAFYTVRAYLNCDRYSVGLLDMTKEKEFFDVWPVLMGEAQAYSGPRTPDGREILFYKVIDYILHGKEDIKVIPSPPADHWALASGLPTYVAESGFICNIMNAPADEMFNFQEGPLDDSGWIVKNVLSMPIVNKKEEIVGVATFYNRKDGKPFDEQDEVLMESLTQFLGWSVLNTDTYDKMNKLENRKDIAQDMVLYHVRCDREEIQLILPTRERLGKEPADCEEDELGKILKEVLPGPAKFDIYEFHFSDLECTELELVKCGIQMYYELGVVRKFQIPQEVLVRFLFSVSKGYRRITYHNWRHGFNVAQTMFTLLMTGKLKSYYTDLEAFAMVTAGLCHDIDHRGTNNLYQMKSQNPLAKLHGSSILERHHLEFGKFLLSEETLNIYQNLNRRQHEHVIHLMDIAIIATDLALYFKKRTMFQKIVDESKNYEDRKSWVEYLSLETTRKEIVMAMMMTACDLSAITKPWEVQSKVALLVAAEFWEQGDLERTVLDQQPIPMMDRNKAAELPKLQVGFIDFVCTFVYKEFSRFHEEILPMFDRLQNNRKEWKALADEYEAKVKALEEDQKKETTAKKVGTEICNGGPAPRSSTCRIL

The mark [5] stands for this setting: 20 nM enzyme, 100 mM NaCl, 20 μM p[NH]ppG, pH 7.4, Ki calculated from slope/Km ratios, read-out: Ki.
Where [6] appears, read: footnote a: from Zimmerman et al 1985; read-out: Ki for Inhibition; cited from earlier work.
Setting [7] is: footnote b: interpolated from Pannbacker et al 1972 and Chader et al 1974; read-out: Ki for Inhibition; cited from earlier work.

Like-named read-outs stand apart in the source and are kept apart here.

In general, Ki refers to a measure of affinity in units of concentration, obtained from inhibition or displacement. The term solubility denotes the concentration that dissolves in the medium under given conditions. In general, Km refers to the concentration of substrate that gives half-maximal velocity.

Molecule `Nc1ncnc2c1ncn2[C@@H]1O[C@@H]2COP(=O)(O)O[C@H]2[C@H]1OC(=O)c1ccc(C(=O)c2ccccc2)cc1` [2'-0-(4-benzoyl) benzoyl-adenosine 3',5' cyclic monophosphate] came in with an IC50 in series [1] of 10 µM.
As for `Nc1nc2c(ncn2[C@@H]2O[C@@H]3COP(=O)(O)O[C@H]3[C@H]2OC(=O)c2ccc(C(=O)c3ccccc3)cc2)c(=O)[nH]1` [2'-0-(4-benzoyl)benzoylguanosine 3',5'cyclic monophosphate], the inhibition constant Ki is 0.3 µM in series [2] (setting [5]) and 0.3 µM in series [2] (Table 1, rod light-activated PDEase, inventive compound, read-out: Ki for Inhibition). Besides, the figures for the IC50 (at cAMP PDE; on cGMP PDE; in series [1]) were 15.8 µM, 0.5 µM and 3 µM, respectively. In addition, the conjunctival hyperemia result with eye (compound (and DMSO) diluted ten-fold with saline solution) is given as “reduced”; with eye (full concentration (in straight DMSO)), “slight conjunctival hyperemia”. Also, the “change in pupil diameter” value in the series on eye (either eye, any concentration, topical) was “No significant change in pupil diameter”. In addition, the “lid erythema or ciliary injection” value with eye (topical) is listed as “no lid erythema or ciliary injection were observed”. Moreover, the solubility in the series “Solubility in solvents” is roughly 100 mM. Moreover, the stability in solution entry in series [3] is listed as “does not degrade”. Also, the “effect on IOP” value with intraocular pressure (10-fold diluted material (approximately 3 mM), compared with 35 mM in DMSO) is recorded as “about the same effect on IOP”; in the series with intraocular pressure (100-fold diluted compound (approximately 0.3 mM)), “essentially no effect”.
For the molecule `Nc1nc2c(ncn2[C@H]2C[C@@H]3OP(=O)(O)OC[C@H]3O2)c(=O)[nH]1` [2'-Deoxy-cGMP], the Ki in series [4] (setting [6]) was 76 µM.
Consider `Nc1nc2c(ncn2[C@@H]2O[C@@H]3COP(O)(=S)O[C@H]3[C@H]2O)c(=O)[nH]1` (some centres unmarked) [(Rp)-cGMP [S]], for which the Ki in series [4] (setting [6]) is 90 µM.
For the molecule `Nc1nc2c(ncn2[C@@H]2O[C@@H]3COP(O)(=S)O[C@H]3[C@H]2O)c(=O)[nH]1` (some centres unmarked) [(Sp)-cGMP [S]], the Ki in series [4] (setting [6]) is 25 µM.
Consider `Nc1nc(O)c2nc(Br)n([C@@H]3O[C@@H]4COP(=O)(O)O[C@H]4[C@H]3O)c2n1` [Example 8-Br-cGMP, 8-Br-3',5' cyclic guanosine monophosphate, reference compound], for which the inhibitory constant (Ki) in [2] (setting [5]) was 6 µM; in [4] (setting [6]), 48 µM.
Regarding `CC(C)Cn1c(=O)n(C)c(=O)c2[nH]cnc21` [Isobutylmethylxanthine], in [4] (read-out: Ki for Inhibition; footnote b: interpolated from Pannbacker et al 1972 and Chader et al 1974; cited from earlier work), the Ki is roughly 100 µM.
Consider `CCCC(=O)Nc1nc2c(ncn2[C@@H]2O[C@@H]3COP(=O)(O)O[C@H]3[C@H]2O)c(=O)[nH]1` [N^2 -monobutyryl-cGMP], for which, in [4] (setting [6]), the inhibitory constant (Ki) is 258 µM.
As to `CCCC(=O)Nc1nc2c(ncn2[C@@H]2O[C@@H]3COP(=O)(O)O[C@H]3[C@H]2OC(=O)CCC)c(=O)[nH]1` [N^2,O^2,-dibutyryl-cGMP], in series [4] (setting [6]), the inhibition constant Ki is 66 µM.
On to `CCCC(=O)O[C@@H]1[C@@H]2OP(=O)(O)OC[C@H]2O[C@H]1n1cnc2c(=O)[nH]c(N)nc21` [O^2,-monobutyryl-cGMP], for which the Ki in series [4] (setting [6]) is 18 µM.
With `COc1ccc(Cc2nccc3cc(OC)c(OC)cc23)cc1OC` [Papaverine], in [4] (setting [7]), the inhibition constant Ki was roughly 50 µM.
For the molecule `Cn1c(=O)c2[nH]cnc2n(C)c1=O` [Theophyline], the Ki in series [4] (setting [7]) was roughly 360 µM.
Consider `Nc1nc2c(ncn2[C@@H]2O[C@@H]3COP(=O)(O)O[C@H]3[C@H]2O)c(=O)[nH]1` [cGMP, 3',5'cyclic guanosine monophosphate], for which the Michaelis constant (Km) in series [4] (substrate cGMP; from Zimmerman et al 1985; read-out: Km (printed in column Ki for Inhibition); cited from earlier work) was 0.04 mM.

The record behind these values is patent US5039797A, “2'-O-(4-benzoyl)benzoyl nucleoside cyclic monophosphate” (Yale University, priority 1989, dated 1991).
